Measurements from patent US20140193827A1 (TEVA PHARMACEUTICAL INDUSTRIES, LTD., priority 2013, published 2014).

System: GA-primed murine splenocytes
Assay: Tolerance method for assessing process variability

glatiramer acetate [GA]
AVG expression LOC100046608 (probe ILMN_1249366): 9.365
AVG expression TSSC6 (probe ILMN_1249740): 6.912
AVG expression IGF1R (probe ILMN_1249824): 6.78
AVG expression IGHG (probe ILMN_1249975): 8.895
AVG expression EIF2AK2 (probe ILMN_1250410): 10.06
AVG expression C730026J16 (probe ILMN_1251984): 9.459
AVG expression LYZ2 (probe ILMN_1252076): 8.645
AVG expression LOC100038894 (probe ILMN_1252295): 6.989
AVG expression WDR9 (probe ILMN_1252496): 7.625
AVG expression ACAT2 (probe ILMN_1253008): 9.341
AVG expression HS3ST1 (probe ILMN_1253182): 8.805
AVG expression DAPP1 (probe ILMN_1253354): 8.474
AVG expression WARS (probe ILMN_1254157): 10.36
AVG expression NISCH (probe ILMN_1254218): 10.29
AVG expression 4931429I11RIK (probe ILMN_1254314): 6.757
AVG expression LMNA (probe ILMN_1254405): 8.835
AVG expression AI607873 (probe ILMN_1254577): 7.533
AVG expression ACPL2 (probe ILMN_1254634): 7.573
AVG expression SYPL (probe ILMN_1254669): 10.85
AVG expression EG240327 (probe ILMN_1254685): 7.154
AVG expression LMNA (probe ILMN_1255510): 9.57
AVG expression IL6RA (probe ILMN_1255743): 7.478
AVG expression KLRD1 (probe ILMN_1255860): 8.506
AVG expression LOC100047261 (probe ILMN_1256219): 11.14
AVG expression PML (probe ILMN_1256356): 10.68
AVG expression MCOLN3 (probe ILMN_1256430): 6.748
AVG expression SLC6A12 (probe ILMN_1256644): 6.942
AVG expression LOC100043821 (probe ILMN_1257107): 10.78
AVG expression SLC37A1 (probe ILMN_1257444): 7.908
AVG expression LOC638301 (probe ILMN_1257771): 9.6
AVG expression A130095K04RIK (probe ILMN_1257803): 6.146
AVG expression D230004N01RIK (probe ILMN_1258197): 8.362
AVG expression DOK3 (probe ILMN_1258357): 11.45
AVG expression 5430434G16RIK (probe ILMN_1258364): 8.61
AVG expression LOC100044376 (probe ILMN_1258587): 9.335
AVG expression BC106179 (probe ILMN_1258864): 7.749
AVG expression TMEM66 (probe ILMN_1258965): 10.41
AVG expression NME7 (probe ILMN_1259075): 8.301
AVG expression SCIN (probe ILMN_1259174): 9.64
AVG expression SFT2D2 (probe ILMN_1260046): 10.2783
AVG expression USP18 (probe ILMN_2054914): 8.225
AVG expression ADCY7 (probe ILMN_2163572): 8.002
AVG expression TNFRSF18 (probe ILMN_2419490): 11.07
AVG expression TNFR5F18 (probe ILMN_2419494): 10.8
AVG expression BRWD1 (probe ILMN_2421220): 7.59
AVG expression UBD (probe ILMN_2426853): 8.138
AVG expression XBP1 (probe ILMN_2431237): 12.27
AVG expression LOC100048346 (probe ILMN_2433990): 9.203
AVG expression SCL0002069.1_48 (probe ILMN_2443164): 8.113
AVG expression MACF1 (probe ILMN_2444984): 7.707
AVG expression TNFRSF9 (probe ILMN_2445789): 8.963
AVG expression TNFRSF4 (probe ILMN_2446559): 10.65
AVG expression IBRDC3 (probe ILMN_2447712): 7.79
AVG expression MAP4K2 (probe ILMN_2449150): 9.206
AVG expression DUSP4 (probe ILMN_2450767): 8.696
AVG expression 6720418B01RIK (probe ILMN_2454823): 7.844
AVG expression A830080H07RIK (probe ILMN_2457437): 9.842
AVG expression MAML2 (probe ILMN_2457571): 8.504
AVG expression AHNAK (probe ILMN_2458765): 8.464
AVG expression ADAMTSL4 (probe ILMN_2459899): 8.039
AVG expression WNT10A (probe ILMN_2460094): 7.099
AVG expression BAMBI-PS1 (probe ILMN_2467190): 7.445
AVG expression 1110059G02RIK (probe ILMN_2473692): 6.85
AVG expression 5830411I20 (probe ILMN_2474052): 10.05
AVG expression CPM (probe ILMN_2476452): 6.679
AVG expression 1700052O22R1K (probe ILMN_2481117): 9.816
AVG expression 2210408F11RIK (probe ILMN_2483811): 10.42
AVG expression 2010005O13RIK (probe ILMN_2488997): 9.797
AVG expression PKIB (probe ILMN_2490076): 7.096
AVG expression TRIO (probe ILMN_2491741): 6.611
AVG expression WISP1 (probe ILMN_2492264): 6.711
AVG expression AA536717 (probe ILMN_2492284): 6.484
AVG expression 2310043N10RIK (probe ILMN_2493030): 9.383
AVG expression UGT1A10 (probe ILMN_2493826): 6.49
AVG expression 9430080K19RIK (probe ILMN_2500370): 10.17
AVG expression EG330070 (probe ILMN_2504447): 6.499
AVG expression A130090K04RIK (probe ILMN_2506039): 8.137
AVG expression 7530404M11RIK (probe ILMN_2507761): 7.426
AVG expression NME7 (probe ILMN_2510694): 7.434
AVG expression 1110046J11RIK (probe ILMN_2513451): 10.16
AVG expression 7530408C15RIK (probe ILMN_2517611): 7.035
AVG expression PLA2G12A (probe ILMN_2518483): 6.955
AVG expression 2010016118RIK (probe ILMN_2520264): 7.54
AVG expression 3010031K01RIK (probe ILMN_2522460): 9.234
AVG expression TRIO (probe ILMN_2522750): 8.588
AVG expression 4930597A21RIK (probe ILMN_2524763): 7.674
AVG expression CHI3L4 (probe ILMN_2524865): 7.454
AVG expression LOC240672 (probe ILMN_2531737): 8.095
